Values of other authors in article PMC12480552 (Scientific Reports, 2025).
Where two headings read alike, the source gives them in different places.

How the values were obtained:
[1] = set-up: method as in earlier work; conditions: humans, multiple-dose oral administration; cited from earlier work
[2] = cited from earlier work
[3] = 43 patients, phase 0 cohort, 200 or 300 mg once daily 4 days, cited from earlier work
[4] = cited from earlier work; remark: listed apart in the source

O=C(c1cc(Cc2n[nH]c(=O)c3ccccc23)ccc1F)N1CCN(C(=O)C2CC2)CC1 [Olaparib]
Tmax [1]: 1 to 3 h

NC(=O)c1cccc2cn(-c3ccc([C@@H]4CCCNC4)cc3)nc12 [Niraparib]
Kp, brain ([2]; P-gp knockout mice): 1.20 | Kp, brain ([2]; P-gp/BCRP knockout mice): 1.46 | Kp, brain ([2]; wild-type mice): 0.20 | Kp, tumor ([3]; gadolinium-enhanced tissue): 7.5 | Kp, tumor ([3]; nonenhanced tissue): 4.2 | cell membrane permeability [4]: high
